Measurements taken from PubChem BioAssay AID686993 (Broad Institute, 2013).
Several values for one entry are separate records, joined by “and”; a condition that tells them apart may be missing. Identical values can stand only once. Records with an inconclusive call do not appear. Activity calls are given as the source filed them.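 The calls were made as follows: active = compound whose fitted half-maximal inhibitory dose is at most twice its top valid dose in every replicate test; inconclusive = replicate test calls disagree with one another; inactive = all replicate tests inactive, including opposite-direction effects.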

Biological target: UDP-N-acetylbacillosamine N-acetyltransferase PglD (Campylobacter jejuni)
Experiment: PglD acetyltransferase inhibitors, dose response, biochemical, DTNB absorbance, dry powder samples, set 4 (AID 686993)
Conditions: purified PglD, DTNB absorbance 412 nm, CoA release

activity change, negative = inhibition (at 10 µM (top of the series)) | AC50 | activity change, negative = inhibition (at 38 µM (top of the series)) | Structure (SMILES)
 |  | inactive | Cc1c(C(=O)O)sc2nc(/C=C/C3CC3)[nH]c(=O)c12
 | 3.97 µM |  | Cc1c(C(=O)O)sc2nc(/C=C/c3ccc4[nH]ccc4c3)[nH]c(=O)c12
 | 29.1 µM |  | Cc1c(C(=O)O)sc2nc(/C=C/c3cccc(C(F)(F)F)c3)[nH]c(=O)c12
 | 14.6 µM |  | Cc1c(C(=O)O)sc2nc(/C=C/c3ccc(N)nc3)[nH]c(=O)c12
 | 30.5 µM |  | Cc1c(C(=O)O)sc2nc(/C=C/c3ccc4ccccc4c3)[nH]c(=O)c12
 | 4.54 µM |  | Cc1c(C(=O)O)sc2nc(/C=C/c3cc4ccccc4cn3)[nH]c(=O)c12
 | 8.04 µM |  | Cc1c(C(=O)O)sc2nc(/C=C/c3ccccc3)[nH]c(=O)c12
 | 8.28 µM |  | Cc1c(C(=O)O)sc2nc(CCc3cccc(O)c3)[nH]c(=O)c12

Continued, compound first:

Structure (SMILES) | activity change, negative = inhibition (at 10 µM (top of the series)) | AC50 | activity change, negative = inhibition (at 38 µM (top of the series))
Cc1c(C(=O)O)sc2nc(/C=C/c3ccncc3)[nH]c(=O)c12 | inactive |  | 
Cc1c(C(=O)O)sc2nc(/C=C/c3ccc4cc[nH]c4c3)[nH]c(=O)c12 |  | 7.87 µM | 
Cc1c(C(=O)O)sc2nc(/C=C/c3cccc(O)c3)[nH]c(=O)c12 |  | 11.7 µM and 1.93 µM | inactive
Cc1c(C(=O)O)sc2nc(/C=C/c3cccc(F)c3)[nH]c(=O)c12 |  | 7.23 µM | 
Cc1c(C(=O)O)sc2nc(/C=C/c3ccccn3)[nH]c(=O)c12 |  | 2.58 µM | 
Cc1c(C(=O)O)sc2nc(/C=C/C=C/c3ccccc3)[nH]c(=O)c12 |  | 18.2 µM | 
Cc1c(C(=O)O)sc2nc(/C=C/c3ccnc4ccccc34)[nH]c(=O)c12 |  |  | inactive
Cc1c(C(=O)O)sc2nc(/C=C/c3cccc(C(N)=O)c3)[nH]c(=O)c12 |  | 17.6 µM | 
Cc1c(C(=O)O)sc2nc(/C=C/c3cnc4ccccc4c3)[nH]c(=O)c12 | inactive |  | 
